Measurements: paper PMC11637875, “Discovery of novel PARP1/NRP1 dual-targeting inhibitors with strong antitumor potency” (Frontiers in Pharmacology, 2024)

How the values were obtained:
MUSK = MUSK (Homo sapiens, UniProt O15146); test: Selectivity profile (123 kinase panel); assay type: biochemical
MCF-10A = test: Cytotoxicity on normal human cells (MTT); assay type: cell-based; conditions: MCF-10A normal human mammary epithelial cells
Protocol: (§1) Cell viability was measured by MTT assays. MDA-MB-231, MCF-10A, L02, FHC, PNT1A, HEL-299, and HEK-293 cell lines were seeded in 96-well plates at 5 ×10^4 cells/well and incubated overnight. Different concentrations of PPNR1-5 or positive control were then added to each well and cultured at 37°C for 72 h. Afterward, the medium was removed. MTT (5 mg/mL) was dissolved in phosphate-buffered saline (PBS) and filter-sterilized, and then, 20 μL of the prepared MTT solution was added to each well, and the cells were incubated for another 4 h until a purple precipitate was visible. The supernatant was removed by centrifugation, and DMSO (150 μL/well) was added to dissolve the insoluble crystals. The absorbance was determined using an enzyme-linked immunosorbent assay reader at a test wavelength of 570 nm. The assays were performed three times in a parallel manner. The non-linear regression was used to plot a Dose-Response-Inhibition to determine the value of the IC50. The cell inhibition rate was calculated at 2 μM concentration of compound treatment. The data were analyzed using GraphPad Prism 9 software.

FHC = test: Cytotoxicity on normal human cells (MTT); assay type: cell-based
Protocol: as §1

HEK-293 = test: Cytotoxicity on normal human cells (MTT); assay type: cell-based; conditions: HEK293, HEK-293 normal human cells
Protocol: as §1

HEL-299 = test: Cytotoxicity on normal human cells (MTT); assay type: cell-based; conditions: HEL-299 normal human cells
Protocol: as §1

L02 = test: Cytotoxicity on normal human cells (MTT); assay type: cell-based
Protocol: as §1

PNT1A = test: Cytotoxicity on normal human cells (MTT); assay type: cell-based
Protocol: as §1

HUVECs = test: Tube formation analysis; assay type: cell-based, human
Protocol: 50 μL of thawed Matrigel (#356234, BD Biosciences, United States) was added to a 96-well plate and incubated at 37°C for 30 min. After Matrigel gelation, HUVECs (1 × 10^5 cells/mL) were seeded into the basement membrane matrix. Each well was filled with 100 μL of cell suspension. […] Finally, five randomly selected fields per well were photographed with an inverted light microscope. The results were analyzed by ImageJ software to measure and record the number of branch points and tube length for each field. The specific steps are to download the “angiogenesis analyzer” plugin and click on ImageJ, Plugings, Macros, Install, angiogenesis analyzer in sequence. At least three parallel replicates were performed for each condition. The relative number of tubes formation was analyzed using GraphPad Prism 9 software.

PARP14 = PARP14 (Homo sapiens, UniProt Q460N5); test: Selectivity profile (other isoforms of PARP and NRP family); assay type: biochemical
MST3 = MST3 (Homo sapiens, UniProt Q9Y6E0); test: Selectivity profile (123 kinase panel); assay type: biochemical
CLK4 = CLK4 (Homo sapiens, UniProt Q9HAZ1); test: Selectivity profile (123 kinase panel); assay type: biochemical
CaMK2α = CaMK2α (Homo sapiens, UniProt Q9UQM7); test: Selectivity profile (123 kinase panel); assay type: biochemical
FES = FES (Homo sapiens, UniProt P07332); test: Selectivity profile (123 kinase panel); assay type: biochemical
NRP2 = NRP2 (Homo sapiens, UniProt O60462); test: Selectivity profile (other isoforms of PARP and NRP family); assay type: biochemical
JNK3 = JNK3 (Homo sapiens, UniProt P53779); test: Selectivity profile (123 kinase panel); assay type: biochemical
NRP1 = target: T1, NRP1 (Homo sapiens, UniProt O14786); test: In vitro NRP1 inhibition assay (125I-VEGF-A binding displacement, NRP1-transfected HUVEC cells); conditions: 125I-VEGF-A165 binding competition, 2 h, 4°C
T1 construct: expressed in transfected cells; host or cells: HUVEC, adenovirus NRP1
Protocol: The method was performed as described previously ([Jarvis et al., 2010]). Radiolabeled binding displacement experiments were performed as described previously ([Jia et al., 2006]). Confluent adenovirus NRP1-transfected HUVEC cells in 96-well plates were washed twice with PBS. At 4°C various concentrations of compounds diluted in binding medium (Dulbecco’s modified Eagle’s medium, 25 mM HEPES, pH 7.3, containing 0.1% BSA) were added, followed by addition of the indicated concentration of ^125I-VEGF-A (1,200–1800 Ci/mmol, GE Healthcare, United Kingdom). After 2 h of incubation at 4°C, the medium was aspirated, and washed four times with cold phosphate-buffered saline. The cells were lysed with 0.25 M NaOH, 0.5% SDS solution, and the bound radioactivity of the lysates was measured. IC50 values were calculated from the competition curves of the compounds in the ^125I-VEGF-A165 binding assay using GraphPad Prism 9 software. Using log(inhibitors) vs response-Variable slope equation in the GraphPad Prism 9 to fit the curves. The equation was as follows: (Top and Bottom are the responses, respectively, at the top and bottom of the curve, Y is the inhibitory response at a given compound concentration X, and the Hillslope describes the steepness of the curve.) Y=Bottom+Top−Bottom/1+10^logIC50−xHillslope

PARP14, sequence (Q460N5 whole entry, canonical isoform): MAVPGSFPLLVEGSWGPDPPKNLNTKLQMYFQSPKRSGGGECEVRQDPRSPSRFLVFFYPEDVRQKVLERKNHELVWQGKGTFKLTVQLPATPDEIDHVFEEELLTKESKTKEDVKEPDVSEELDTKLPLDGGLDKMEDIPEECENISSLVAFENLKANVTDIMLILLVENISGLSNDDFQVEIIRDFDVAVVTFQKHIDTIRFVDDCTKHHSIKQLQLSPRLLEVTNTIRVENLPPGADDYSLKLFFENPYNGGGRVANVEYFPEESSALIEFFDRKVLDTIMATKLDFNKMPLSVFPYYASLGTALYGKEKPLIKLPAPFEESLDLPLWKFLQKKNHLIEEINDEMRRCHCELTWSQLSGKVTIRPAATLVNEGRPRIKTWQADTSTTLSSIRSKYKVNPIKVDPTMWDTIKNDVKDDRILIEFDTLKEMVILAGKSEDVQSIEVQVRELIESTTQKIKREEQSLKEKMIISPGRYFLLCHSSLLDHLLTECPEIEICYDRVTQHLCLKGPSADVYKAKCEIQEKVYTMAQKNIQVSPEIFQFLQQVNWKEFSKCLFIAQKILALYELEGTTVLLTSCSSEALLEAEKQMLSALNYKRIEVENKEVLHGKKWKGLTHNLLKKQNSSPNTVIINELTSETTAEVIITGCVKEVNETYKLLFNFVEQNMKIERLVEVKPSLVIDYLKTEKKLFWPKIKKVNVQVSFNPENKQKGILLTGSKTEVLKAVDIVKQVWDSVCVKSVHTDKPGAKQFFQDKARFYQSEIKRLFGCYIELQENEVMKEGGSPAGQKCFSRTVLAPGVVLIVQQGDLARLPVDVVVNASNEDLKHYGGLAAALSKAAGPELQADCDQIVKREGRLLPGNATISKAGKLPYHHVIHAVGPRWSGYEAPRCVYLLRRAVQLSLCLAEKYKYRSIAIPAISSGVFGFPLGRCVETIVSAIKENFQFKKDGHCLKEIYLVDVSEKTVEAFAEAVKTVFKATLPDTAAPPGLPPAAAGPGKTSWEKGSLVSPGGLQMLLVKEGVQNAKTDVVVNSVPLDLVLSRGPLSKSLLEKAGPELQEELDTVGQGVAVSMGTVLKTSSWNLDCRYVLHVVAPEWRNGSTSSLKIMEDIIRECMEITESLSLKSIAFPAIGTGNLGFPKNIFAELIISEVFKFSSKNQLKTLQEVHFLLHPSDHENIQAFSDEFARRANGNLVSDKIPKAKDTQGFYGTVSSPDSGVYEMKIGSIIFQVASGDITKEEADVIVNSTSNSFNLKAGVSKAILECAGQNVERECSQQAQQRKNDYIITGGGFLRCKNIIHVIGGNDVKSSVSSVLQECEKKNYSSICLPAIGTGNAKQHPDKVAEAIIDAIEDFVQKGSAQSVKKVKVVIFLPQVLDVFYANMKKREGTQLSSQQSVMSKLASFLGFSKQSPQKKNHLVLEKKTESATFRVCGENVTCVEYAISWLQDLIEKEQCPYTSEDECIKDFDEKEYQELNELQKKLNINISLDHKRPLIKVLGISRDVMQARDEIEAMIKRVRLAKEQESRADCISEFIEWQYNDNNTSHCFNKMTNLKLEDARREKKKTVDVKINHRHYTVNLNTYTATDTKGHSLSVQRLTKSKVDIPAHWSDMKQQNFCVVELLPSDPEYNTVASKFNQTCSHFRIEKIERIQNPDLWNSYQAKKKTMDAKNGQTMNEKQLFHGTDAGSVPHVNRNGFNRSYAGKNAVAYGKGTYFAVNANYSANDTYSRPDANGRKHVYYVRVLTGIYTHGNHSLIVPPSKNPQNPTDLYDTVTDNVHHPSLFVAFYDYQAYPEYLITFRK
NRP2, sequence (O60462 21-931): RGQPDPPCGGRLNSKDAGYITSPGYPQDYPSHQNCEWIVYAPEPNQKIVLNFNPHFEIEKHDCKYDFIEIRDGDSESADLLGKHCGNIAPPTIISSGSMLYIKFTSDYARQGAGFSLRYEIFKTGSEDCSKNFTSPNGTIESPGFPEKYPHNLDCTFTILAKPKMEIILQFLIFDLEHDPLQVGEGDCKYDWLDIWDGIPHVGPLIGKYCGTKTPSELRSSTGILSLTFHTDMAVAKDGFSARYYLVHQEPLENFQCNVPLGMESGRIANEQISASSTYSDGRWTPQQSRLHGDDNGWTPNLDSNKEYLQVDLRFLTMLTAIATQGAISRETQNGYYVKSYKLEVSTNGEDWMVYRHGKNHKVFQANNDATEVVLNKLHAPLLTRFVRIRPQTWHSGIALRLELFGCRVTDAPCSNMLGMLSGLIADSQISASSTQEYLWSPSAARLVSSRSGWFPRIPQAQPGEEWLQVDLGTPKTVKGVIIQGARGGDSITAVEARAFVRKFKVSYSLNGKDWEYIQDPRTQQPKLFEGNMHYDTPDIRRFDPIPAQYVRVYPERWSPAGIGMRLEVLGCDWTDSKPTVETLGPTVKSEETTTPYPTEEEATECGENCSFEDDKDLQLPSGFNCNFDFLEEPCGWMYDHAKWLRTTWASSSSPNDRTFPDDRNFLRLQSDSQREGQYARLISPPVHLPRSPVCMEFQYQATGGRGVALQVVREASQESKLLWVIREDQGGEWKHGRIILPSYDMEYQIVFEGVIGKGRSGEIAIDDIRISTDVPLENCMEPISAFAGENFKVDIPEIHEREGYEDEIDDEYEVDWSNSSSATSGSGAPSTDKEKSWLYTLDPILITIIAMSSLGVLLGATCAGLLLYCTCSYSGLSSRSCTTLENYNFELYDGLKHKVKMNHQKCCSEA
MUSK, sequence (O15146 24-869): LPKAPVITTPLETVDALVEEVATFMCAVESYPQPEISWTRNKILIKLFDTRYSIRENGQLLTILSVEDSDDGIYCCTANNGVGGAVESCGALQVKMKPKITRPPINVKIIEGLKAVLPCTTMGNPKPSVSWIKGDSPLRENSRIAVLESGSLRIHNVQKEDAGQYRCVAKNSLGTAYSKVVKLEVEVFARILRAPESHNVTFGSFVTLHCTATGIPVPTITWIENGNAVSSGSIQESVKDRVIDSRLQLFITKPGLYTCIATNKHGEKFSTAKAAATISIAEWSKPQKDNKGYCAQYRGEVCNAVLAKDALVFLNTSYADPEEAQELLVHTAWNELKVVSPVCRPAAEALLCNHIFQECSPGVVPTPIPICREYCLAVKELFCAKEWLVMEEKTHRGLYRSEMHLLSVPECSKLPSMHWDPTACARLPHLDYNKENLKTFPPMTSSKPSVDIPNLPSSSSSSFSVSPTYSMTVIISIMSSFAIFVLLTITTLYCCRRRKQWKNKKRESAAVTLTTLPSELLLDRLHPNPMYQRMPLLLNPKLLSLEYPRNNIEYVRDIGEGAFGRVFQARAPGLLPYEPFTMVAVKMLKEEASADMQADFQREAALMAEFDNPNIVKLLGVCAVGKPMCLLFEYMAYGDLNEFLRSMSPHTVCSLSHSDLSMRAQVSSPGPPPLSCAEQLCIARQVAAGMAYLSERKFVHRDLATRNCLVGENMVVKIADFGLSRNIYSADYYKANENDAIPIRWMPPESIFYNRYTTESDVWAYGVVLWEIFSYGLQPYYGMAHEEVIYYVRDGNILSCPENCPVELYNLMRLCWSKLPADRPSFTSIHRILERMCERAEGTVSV
CLK4, sequence (Q9HAZ1 whole entry): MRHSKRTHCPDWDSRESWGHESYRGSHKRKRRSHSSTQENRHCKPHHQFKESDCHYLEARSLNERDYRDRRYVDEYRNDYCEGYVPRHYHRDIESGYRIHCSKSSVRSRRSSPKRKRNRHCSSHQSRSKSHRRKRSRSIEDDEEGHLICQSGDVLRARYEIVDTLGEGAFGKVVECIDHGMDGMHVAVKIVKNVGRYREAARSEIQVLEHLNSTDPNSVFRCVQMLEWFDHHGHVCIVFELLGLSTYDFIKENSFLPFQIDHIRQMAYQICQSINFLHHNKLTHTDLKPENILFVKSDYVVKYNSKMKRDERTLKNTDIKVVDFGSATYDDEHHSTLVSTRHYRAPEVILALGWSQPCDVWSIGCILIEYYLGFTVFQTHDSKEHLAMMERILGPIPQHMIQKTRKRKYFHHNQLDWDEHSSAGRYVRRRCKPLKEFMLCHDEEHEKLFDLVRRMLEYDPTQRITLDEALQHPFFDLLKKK
JNK3, sequence (P53779 whole entry): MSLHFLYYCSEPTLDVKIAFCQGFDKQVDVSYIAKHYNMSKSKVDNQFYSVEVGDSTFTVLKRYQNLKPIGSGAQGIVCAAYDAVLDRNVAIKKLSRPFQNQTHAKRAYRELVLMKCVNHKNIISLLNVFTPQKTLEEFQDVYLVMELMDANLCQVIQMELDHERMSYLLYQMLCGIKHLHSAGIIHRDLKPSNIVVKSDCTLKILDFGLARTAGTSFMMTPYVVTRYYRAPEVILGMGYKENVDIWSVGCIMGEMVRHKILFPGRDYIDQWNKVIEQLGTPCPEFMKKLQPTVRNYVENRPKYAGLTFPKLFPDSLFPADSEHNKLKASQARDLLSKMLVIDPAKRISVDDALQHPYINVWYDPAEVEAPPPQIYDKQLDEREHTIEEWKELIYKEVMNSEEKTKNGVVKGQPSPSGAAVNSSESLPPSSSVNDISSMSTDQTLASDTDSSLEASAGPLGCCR
MST3, sequence (Q9Y6E0 whole entry): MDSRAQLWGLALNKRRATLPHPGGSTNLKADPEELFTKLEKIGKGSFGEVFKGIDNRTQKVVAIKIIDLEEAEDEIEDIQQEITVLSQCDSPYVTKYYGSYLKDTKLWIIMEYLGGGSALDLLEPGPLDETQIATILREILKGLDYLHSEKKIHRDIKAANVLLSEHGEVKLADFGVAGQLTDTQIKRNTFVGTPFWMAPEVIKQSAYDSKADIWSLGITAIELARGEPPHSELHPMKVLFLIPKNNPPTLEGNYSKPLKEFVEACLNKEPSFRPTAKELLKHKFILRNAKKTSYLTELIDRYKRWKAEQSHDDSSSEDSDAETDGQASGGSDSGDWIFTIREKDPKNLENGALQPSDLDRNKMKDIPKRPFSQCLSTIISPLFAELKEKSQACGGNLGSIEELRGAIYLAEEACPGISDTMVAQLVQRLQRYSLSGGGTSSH

IC50 (MUSK): > 10 µM
IC50 (PARP14): > 10 µM
IC50 (MST3): > 10 µM
IC50 (CLK4): > 10 µM
IC50 (CaMK2α): > 10 µM
IC50 (FES): > 10 µM
IC50 (NRP2): > 10 µM
IC50 (JNK3): > 10 µM
IC50 (NRP1): 0.0245 ± 0.00216 µM
Compound: NC(N)=NCCC[C@H](NCN1CCN(C(=O)c2cc(Cc3n[nH]c(=O)c4ccccc34)ccc2F)CC1)C(=O)O [PPNR-4]
IC50 (MCF-10A): > 10 µM
IC50 (FHC): > 10 µM
IC50 (HEK-293): > 10 µM
IC50 (HEL-299): > 10 µM
IC50 (L02): > 10 µM
IC50 (PNT1A): > 10 µM
tube formation (HUVECs; 2, 6, and 18 μM, compared with the control group): significantly interfered with tube formation in a dose-dependent manner
activity at 6 µM (HUVECs; Homo sapiens, HUVEC, 8 h, 6 μM, 8 h, single replicates, read-out: Relative number of tube formations (% of control)): 6%
activity at 18 µM (HUVECs; Homo sapiens, HUVEC, 8 h, 18 μM, 8 h, single replicates, read-out: Relative number of tube formations (% of control)): 0%
